Experiments:
CD8+ T cell = assay: IFN-γ level measurements for CD8+ T cell function; format: cell-based; conditions: relative to vehicle
Excerpt: FIG. 39 illustrates the results of IFN-γ level measurements for CD8^+ T cell function.

[1] = test system: GPVI platelet aggregation; assay: GPVI platelet aggregation studies; format: cell-based; conditions: read-out: IC50, GPVI platelet aggregation
[2] = test system: 80 known pharmacologic targets (G-protein-coupled receptors, nuclear receptors, proteases, ion channels); assay: Binding assays on 80 known pharmacologic targets at 10 μM; conditions: screened at 10 μM
Excerpt: (§1) Formula (2) was well tolerated in standard in vivo Good Laboratory Practices (GLP) studies of pharmacologic safety.

[3] = test system: EGFR phosphorylation (p-EGFR Y1069) in A431 cells; assay: EGF-induced EGFR phosphorylation in A431 cells (phosphoflow); format: cell-based, human
Procedure: Phosphoflow cytometry was performed with p-EGFR (Y1069). MFI values were normalized so that 100% represents the p-EGFR level in stimulated cells without inhibitor, while 0% represents the unstimulated/no drug condition.

[4] = GLP functional observation battery; format: in vivo; conditions: rats, doses through 300 mg/kg
Excerpt: as §1

[5] = Cardiovascular function study in awake telemeterized dogs; format: in vivo; conditions: male beagle dogs, single doses through 30 mg/kg
Excerpt: as §1

[6] = In vitro metabolism in hepatocytes with 14C-labeled drug; format: in vitro ADME, and human; conditions: mouse, rat, dog, rabbit, monkey, human hepatocytes
[7] = Preliminary evaluation of metabolism in plasma, bile and urine; format: in vivo; conditions: rats, dogs, monkeys
ID8 ovarian cancer = assay: ID8 syngeneic orthotopic ovarian cancer murine model; format: in vivo, mice; conditions: 15 mg/kg/BID orally
Excerpt: […] ovarian cancer models, including the ID8 syngeneic orthotopic ovarian cancer model and other animal models, are described in Fong and Kakar, J. Ovarian Res. 2009, 2, 12; Greenaway, et al., Gynecol. Oncol. 2008, 108, 385-94; Urzua, et al., Tumour Biol. 2005, 26, 236-44; Janat-Amsbury, et al., Anticancer Res. 2006, 26, 3223-28; Janat-Amsbury, et al., Anticancer Res. 2006, 26, 2785-89. […] The results of the study are shown in FIG. 8, FIG. 9, FIG. 10, FIG. 11, FIG. 12, FIG. 13, FIG. 14, and FIG. 15.

[8] = test system: pancreatic cancer (KPC mice); assay: KPC pancreatic cancer mouse model; format: in vivo
Excerpt: The KPC mouse model recapitulates many of the molecular, histopathologic, and clinical features of human disease (Westphalen and Olive, Cancer J. 2012, 18, 502-510). Mice were enrolled after identification of spontaneously appearing tumors in the pancreas that were ≥100 mm^3 (as assessed by high-resolution ultrasonography).

[9] = test system: NK cells co-cultured with antibody-coated DHL-4 or HER18 target cells; assay: NK cell lytic granule release (CD107a) by flow cytometry; format: cell-based, human; conditions: 1 μM; HER18 targets, trastuzumab 10 μg/mL
Excerpt: Prior to assay, HER18 cells were harvested using trypsin-EDTA, washed with phosphate-buffered saline (PBS) containing 5% serum and viable cells were counted. For culture of primary target cells, peripheral blood from CLL patients was subject to density centrifugation to obtain peripheral blood mononuclear cells (PBMC). Cell preparations were washed and then subject to positive selection of CD5^+CD19^+ CLL cells using magnetic beads (MACS, Miltenyi Biotech). Cell preparations were used fresh after selection. NK cells from CLL patients and healthy volunteers were enriched from peripheral blood collected in sodium citrate anticoagulant tubes and then subject to density centrifugation. Removal of non NK cells was performed using negative selection by MACS separation. […]
Lytic granule release was determined as follows. […] Degranulation was evaluated via by flow cytometery by externalization of CD107a, a protein normally present on the inner leaflet of lytic granules, and gating on NK cells (CD3-CD16^+ lymphocytes). The percentage of CD107a positive NK cells was quantified by comparison with a negative control (isotype control, unstained cells/FMO). Control cultures (NK cells cultured without target cells, or NK, target cell co-cultures in the absence of appropriate monoclonal antibody) were also evaluated; all experiments were performed in triplicate.

[10] = test system: NK cell lysis of Raji cells; assay: Rituximab ADCC 51Cr release assay, Raji targets; format: cell-based, human; conditions: 1 μM; NK cells, E:T 25:1
Excerpt: (§2) Cell culture conditions were as follows. […] The HER18 cells were maintained in DEM supplemented with fetal bovine serum, penicillin-streptomycin and. Prior to assay, HER18 cells were harvested using trypsin-EDTA, washed with phosphate-buffered saline (PBS) containing 5% serum and viable cells were counted. For culture of primary target cells, peripheral blood from CLL patients was subject to density centrifugation to obtain peripheral blood mononuclear cells (PBMC). Cell preparations were washed and then subject to positive selection of CD5^+CD19^+ CLL cells using magnetic beads (MACS, Miltenyi Biotech). Cell preparations were used fresh after selection. NK cells from CLL patients and healthy volunteers were enriched from peripheral blood collected in sodium citrate anticoagulant tubes and then subject to density centrifugation. Removal of non NK cells was performed using negative selection by MACS separation. Freshly isolated NK cells were washed three times, enumerated, and then used immediately for ADCC assays.
ADCC assays were performed as follows. Briefly, target cells (Raji or primary CLL) were labeled by incubation at 37° C. with 100 μCi ^51Cr for 4 hours prior to co-culture with NK cells. Cells were washed, enumerated, and then added in triplicate to prepared 96-well plates containing treated NK cells at an effector:target (E:T) ratio of 25:1. […] Cultures were incubated at 37° C. for 4 hours, and then centrifuged. Supernatants were harvested and ^51Cr release was measured by liquid scintillation counting. All experiments were performed in triplicate.

[11] = test system: NK cell lysis of primary CLL cells; assay: Rituximab ADCC 51Cr release assay, primary autologous CLL targets; format: cell-based, human; conditions: 1 μM; E:T 25:1
Excerpt: as §2
ADCC assays were performed as follows. Briefly, target cells (Raji or primary CLL) were labeled by incubation at 37° C. with 100 μCi ^51Cr for 4 hours prior to co-culture with NK cells. […] Supernatants were harvested and ^51Cr release was measured by liquid scintillation counting. […]

Th17 and Treg cells = assay: Th17 and Treg development of CD4+ T cells under skewing cytokines; format: cell-based
Procedure: Enriched CD4^+ T cells are plated on 24-well culture dishes that have been precoated 2 hr with 250 μL anti-TCRβ (0.5 μg/mL) plus anti-CD28 (5 μg/mL) at 37° C. in PBS. The cells are then supplemented with media containing BTK inhibitors along with the skewing cytokines as indicated in the following. The Th17 and Treg cultures are grown for 4 days before analysis. The cells are maintained for an additional 3 days with skewing cytokines (Th17; 20 ng/mL IL-6, 0.5 ng/mL TGF-β, 5 μg/mL IL-4, 5 μg/mL IFN-γ and Treg; 0.5 ng/mL TGF-β, 5 μg/mL IL-4, 5 μg/mL IFN-γ) and are supplemented with IL2 as a growth factor.

[12] = test system: CD8+ T cell function (B lymphoblast targets); assay: Cytotoxic T cell (CTL) assay; format: cell-based; conditions: CTL generated 4 days with 500 nM inhibitor
Procedure: Without being bound by any theory, CD8^+ T cells have two primary effector functions: (1) produce large amounts of IFN-γ (which activates macrophages), and (2) cytolytic activity. […] The targets were B lymphoblasts from lipopolysaccharide (LPS) treated cultures. The assay was performed by incubating different ratios of effectors:targets for 4 hours.

CLL = assay: Clinical study of Formula (2) in CLL (ALC, SPD, PFS, immune cells, apoptosis, chemokines); conditions: CLL patients, relative to ibrutinib (Byrd et al. 2013)
Excerpt: Trendlines are shown for % change in MDSC (monocytic) level and % change in NK cell level.

## CC#CC(=O)N1CCC[C@H]1c1nc(-c2ccc(C(=O)Nc3ccccn3)cc2)c2c(N)nccn12 [Formula (2), (S)-4-(8-amino-3-(1-(but-2-ynoyl)pyrrolidin-2-yl)imidazo[1,5-a]pyrazin-1-yl)-N-(pyridin-2-yl)benzamide]
CD8+ T cell
  CD8+ T cell function as IFN-γ level: no effect on CD8^+ T cell function as measured by IFN-γ level relative to vehicle
[1]
  IC50: 1150 nM
[2]
  activity in binding assays on 80 known pharmacologic targets: significant activity only against the A3 adenosine receptor
[3]; 10 μM, A431 human epidermoid cancer cell line
  inhibition of in vitro EGFR phosphorylation: no inhibition
[3]; Homo sapiens, A-431, A431 cells, 2 h, EGF 100 ng/mL 5 min
  inhibition at 10 µM: 7%
[4]
  functional observation battery: neurobehavioral effects, body temperature: no adverse effects
[5]
  body temperature, cardiovascular, ECG (including QT interval) parameters: no meaningful changes
[6]
  metabolites in hepatocytes: two mono-oxidized metabolites and a glutathione conjugate
[7]
  metabolic processes in plasma, bile, and urine: oxidation, glutathione binding, and hydrolysis
ID8 ovarian cancer
  CD8+ T cells: increase
ID8 ovarian cancer; tumor-bearing mice
  immunosuppressive B cells, including Bregs: significant reduction
  immunosuppressive tumor-associated lymphocytes: significant reduction
[8]; 15 mg/kg BID
  CD8+ cells in tumor tissues: significant increase
  MDSCs in tumor tissues: significantly reduced
  Tregs in tumor tissues: significantly reduced
  immunosuppressive TAMs in tumor tissues: significantly reduced
[8]; 15 mg/kg BID orally
  survival at day 28: 5/6
[8]; 15 mg/kg BID orally, day 28
  average tumor volume, day 28: 272 mm^3
[8]; 15 mg/kg BID orally, predose
  average tumor volume, predose: 165 mm^3
[9]
  inhibition of trastuzumab-stimulated NK cell degranulation: no inhibitory effect
[10]
  effect on rituximab-mediated ADCC, Raji cells: not inhibited
[11]
  effect on rituximab-mediated ADCC, primary CLL samples (autologous): not inhibited
Th17 and Treg cells
  Th17 development: no adverse effect
  Treg development: no adverse effect
[12]
  CD8+ T cell function as % cytotoxicity: no effect
CLL
  absolute lymphocyte count (ALC): much smaller relative increase and much faster decrease in absolute lymphocyte count (ALC)
